Laboratory results from US20260327193A1, “INHIBITORS OF PLASMA KALLIKREIN” (Rezolute, Inc., priority 2022, published 2026).

How the values were obtained:
Plasma Kallikrein [1] = molecular target: T1, Plasma Kallikrein (Homo sapiens, UniProt P03952); assay: Plasma kallikrein activity in pooled human plasma; format: biochemical; parameters: Plasma Kallikrein activity was also measured in pooled human plasma; from tissue; host or cells: pooled human plasma; conditions: Z-FR-AMC substrate, activated with 10% Actin FS solution, 10 minutes, read-out: Pooled Human Plasma PKal IC50
Protocol: (§1) Plasma kallikrein protease inhibition assay. Two methods for determining the IC50 of a test compound against Plasma Kallikrein are provided.
Second, Plasma Kallikrein activity was also measured in pooled human plasma. First, a 10% Actin FS solution was prepared in assay buffer. Each test compound was dissolved in DMSO and delivered to the reaction mixture along with Z-FR-AMC substrate and pooled human plasma. The multi-well reaction plate was incubated for five minutes at room temperature. To initiate the reaction, the 10% Actin FS solution was added to each well, and kinetic measurements were taken at Ex/Em at 355/460 nm. The fluorescence signal was recorded every 30 seconds for a total of 10 minutes.

Plasma Kallikrein [2] = molecular target: T1, Plasma Kallikrein; assay: Plasma kallikrein protease inhibition assay, purified enzyme; format: biochemical; parameters: NS0-derived Gly20-Ala638, with a C-terminal 60-His tag; 60-His (so in the source) (C); purchased R&D Systems 2497-SE; host or cells: Mouse myeloma cell line, NS0; conditions: 10 μM Z-FR-AMC substrate, 20-minute pre-incubation, pH 8.0/8.5, room temperature, read-out: Purified PKal IC50
Protocol: as §1
In the first method was used a reaction buffer composed of 25 mM Tris-HCl (pH 8.0), 100 mM NaCl (pH 8.5), 0.01% Brij35, and 1% DMSO (final). The enzyme used was Plasma Kallikrein (R&D Systems Cat #2497-SE; Recombinant Human Plasma Kallikrein, expressed in Mouse myeloma cell line, NS0-derived Gly20-Ala638, with a C-terminal 60-His tag. MW=70 kDa).
The enzyme was activated by dilution to 200 μg/mL in activation buffer (100 mM Tris, 10 mM CaCl2, 150 mM NaCl, pH 7.5 (TCN), and then combined with an equal volume of 20 μg/mL thermolysin to form a reaction buffer. Each test compound was then dissolved in DMSO and delivered into the reaction buffer. The reaction was initiated by delivering a substrate solution containing 10 μM Z-FR-AMC (Enzo Cat #P-139; AMC: 7-Amino-4-methylcoumarin) into the reaction well after a 20-minute pre-incubation period.
Measurement was conducted with En Vision (PE) with excitation and emission wavelengths of 355 nm and 460 nm, respectively. […]. The enzyme activities were monitored every 5 minutes as a time-course measurement of the increase in signal from fluorescently labeled peptide substrate for 120 minutes at room temperature.
Data was analyzed by taking slope*(signal/time) of the linear portion of measurements. Slope was calculated using Excel, and curve fits were performed using Prism software.

T1 sequence (P03952 391-638 limits assumed): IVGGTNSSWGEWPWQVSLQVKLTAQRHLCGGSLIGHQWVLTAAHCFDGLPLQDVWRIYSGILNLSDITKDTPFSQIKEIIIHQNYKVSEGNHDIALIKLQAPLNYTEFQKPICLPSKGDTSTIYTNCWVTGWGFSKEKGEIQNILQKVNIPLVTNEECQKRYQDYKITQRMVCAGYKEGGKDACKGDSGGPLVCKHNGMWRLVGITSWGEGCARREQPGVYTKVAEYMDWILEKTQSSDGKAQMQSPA
T1 sequence (P03952 20-390 partner limits assumed): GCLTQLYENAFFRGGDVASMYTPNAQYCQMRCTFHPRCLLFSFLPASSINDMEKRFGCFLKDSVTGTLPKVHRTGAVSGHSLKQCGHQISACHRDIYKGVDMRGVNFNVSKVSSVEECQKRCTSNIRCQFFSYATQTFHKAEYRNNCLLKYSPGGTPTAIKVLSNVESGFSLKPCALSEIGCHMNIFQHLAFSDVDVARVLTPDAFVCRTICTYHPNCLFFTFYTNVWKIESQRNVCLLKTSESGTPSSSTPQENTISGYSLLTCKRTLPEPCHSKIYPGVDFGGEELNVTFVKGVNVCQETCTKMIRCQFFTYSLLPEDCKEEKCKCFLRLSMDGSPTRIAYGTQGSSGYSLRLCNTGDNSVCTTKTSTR

Row | SMILES | IC50 (Plasma Kallikrein [1]) | IC50 (Plasma Kallikrein [2])
1 | N#CCc1ccccc1Cn1cc(C(=O)NCc2ccc(C(=N)N)cc2)cn1 [Example 70, N-(4-carbamimidoylbenzyl)-1-(2-(cyanomethyl)benzyl)-1H-pyrazole-4-carboxamide] | 100 to 1000 nM | 10 to 100 nM
2 | CNC(=O)Cc1ccc(Cn2cc(C(=O)NCc3ccc(C(=N)N)c(F)c3)cn2)cc1 [Example 74, N-(4-carbamimidoyl-3-fluorobenzyl)-1-(4-(2-(methylamino)-2-oxoethyl)benzyl)-1H-pyrazole-4-carboxamide] | 100 to 1000 nM | 1 to 10 nM
3 | N#CCc1ccc(Cn2cc(C(=O)NCc3ccc(C(=N)N)c(F)c3)cn2)cc1 [Example 72, N-(4-carbamimidoyl-3-fluorobenzyl)-1-(4-(cyanomethyl)benzyl)-1H-pyrazole-4-carboxamide] | 100 to 1000 nM | 10 to 100 nM
4 | N#CCc1ccc(Cc2cc(C(=O)NCc3ccc(C(=N)N)cc3)on2)cc1 [Example 10, N-(4-carbamimidoylbenzyl)-3-(4-(cyanomethyl)benzyl) isoxazole-5-carboxamide] | – | 1 to 10 nM
5 | N#Cc1ccn(-c2ccc(Cn3cc(C(=O)NCc4ccc(C(=N)N)cc4)cn3)cc2)c1 [Example 25, N-(4-carbamimidoylbenzyl)-1-(4-(3-cyano-1H-pyrrol-1-yl)benzyl)-1H-pyrazole-4-carboxamide] | < 100 nM | < 1 nM
6 | N#Cc1ccc(-c2ccc(Cn3cc(C(=O)NCc4ccc(C(=N)N)cc4)cn3)cc2)cc1 [Example 13, N-(4-carbamimidoylbenzyl)-1-((4′-cyano-[1,1′-biphenyl]-4-yl)methyl)-1H-pyrazole-4-carboxamide] | < 100 nM | < 1 nM
7 | COCc1c(C(=O)NCc2ccc(C(=N)N)c(F)c2)cnn1Cc1ccc(CC#N)cc1 [Example 75, N-(4-carbamimidoyl-3-fluorobenzyl)-1-(4-(cyanomethyl)benzyl)-5-(methoxymethyl)-1H-pyrazole-4-carboxamide] | > 1000 nM | > 100 nM
8 | N#CCc1ccc(Cc2cc(C(=O)NCc3ccc(C(=N)N)cc3)sn2)cc1 [Example 11] | – | 1 to 10 nM
9 | Cc1c(C(=O)NCc2ccc(C(=N)N)cc2)cnn1Cc1ccc(C(C)(C)C#N)cc1 [Example 81, N-(4-carbamimidoylbenzyl)-1-(4-(2-cyanopropan-2-yl)benzyl)-5-methyl-1H-pyrazole-4-carboxamide] | < 100 nM | < 1 nM
10 | COCc1c(C(=O)NCc2ccc(C(=N)N)cc2)cnn1Cc1ccc(C(C)(C)C#N)cc1 [Example 82, N-(4-carbamimidoylbenzyl)-1-(4-(2-cyanopropan-2-yl)benzyl)-5-(methoxymethyl)-1H-pyrazole-4-carboxamide] | < 100 nM | 10 to 100 nM
11 | CCCc1c(C(=O)NCc2ccc(C(=N)N)cc2)ncn1Cc1ccc(C(C)(C)C#N)cc1 [Example 84, N-(4-carbamimidoylbenzyl)-1-(4-(2-cyanopropan-2-yl)benzyl)-5-propyl-1H-imidazole-4-carboxamide] | > 1000 nM | > 100 nM
12 | N#CCc1ccc(Cn2ncc(C(=O)NCc3ccc(C(=N)N)cc3)c2C2CC2)cc1 [Example 86, N-(4-carbamimidoylbenzyl)-1-(4-(cyanomethyl)benzyl)-5-cyclopropyl-1H-pyrazole-4-carboxamide] | 100 to 1000 nM | 10 to 100 nM
13 | COCc1c(C(=O)NCc2ccc(C(=N)N)cc2)cnn1Cc1ccc(CC#N)cc1 [Example 85, N-(4-carbamimidoylbenzyl)-1-(4-(cyanomethyl)benzyl)-5-(methoxymethyl)-1H-pyrazole-4-carboxamide] | 100 to 1000 nM | 10 to 100 nM
14 | COCc1ccc(Cn2cc(C(=O)NCc3ccc(C(=N)N)cc3)cn2)cc1 [Example 71, N-(4-carbamimidoylbenzyl)-1-(4-(methoxymethyl)benzyl)-1H-pyrazole-4-carboxamide] | < 100 nM | < 1 nM
15 | CC(C#N)c1ccc(Cn2cc(C(=O)NCc3ccc(C(=N)N)cc3)cn2)cc1 (stereo not drawn) [Example 5, N-(4-carbamimidoylbenzyl)-1-(4-(1-cyanoethyl)benzyl)-1H-pyrazole-4-carboxamide] | – | 1 to 10 nM
16 | N=C(N)c1ccc(CNC(=O)c2cnn(Cc3ccc(CO)cc3)c2)cc1 [Example 2, N-(4-carbamimidoylbenzyl)-1-(4-(hydroxymethyl)benzyl)-1H-pyrazole-4-carboxamide] | < 100 nM | 1 to 10 nM
17 | COCCc1cccc(Cn2cc(C(=O)NCc3ccc(C(=N)N)cc3)cn2)c1 [Example 69, N-(4-carbamimidoylbenzyl)-1-(3-(2-methoxyethyl)benzyl)-1H-pyrazole-4-carboxamide] | < 100 nM | 1 to 10 nM
18 | CC(C)(C#N)c1ccc(Cn2cc(C(=O)NCc3cc(F)c(C(=N)N)c(F)c3)cn2)cc1 [Example 44, N-(4-carbamimidoyl-3,5-difluorobenzyl)-1-(4-(2-cyanopropan-2-yl)benzyl)-1H-pyrazole-4-carboxamide] | > 1000 nM | > 100 nM
19 | CC(C)(C#N)c1ccc(Cn2ncc(C(=O)NCc3ccc(C(=N)N)cc3)c2C2CC2)cc1 [Example 83, N-(4-carbamimidoylbenzyl)-1-(4-(2-cyanopropan-2-yl)benzyl)-5-cyclopropyl-1H-pyrazole-4-carboxamide] | 100 to 1000 nM | 10 to 100 nM
20 | COCCc1ccc(Cn2cc(C(=O)NCc3ccc(C(=N)N)c(F)c3)cn2)cc1 [Example 73, N-(4-carbamimidoyl-3-fluorobenzyl)-1-(4-(2-methoxyethyl)benzyl)-1H-pyrazole-4-carboxamide] | < 100 nM | 1 to 10 nM
21 | N#Cc1ccc(Cc2ccc(Cn3cc(C(=O)NCc4ccc(C(=N)N)cc4)cn3)cc2)cc1 [Example 14, N-(4-carbamimidoylbenzyl)-1-(4-(4-cyanobenzyl)benzyl)-1H-pyrazole-4-carboxamide] | 100 to 1000 nM | < 1 nM
